{
  "source": "patent US20240000809A1",
  "about": "“IMPROVED USE OF CANNABINOIDS IN THE TREATMENT OF EPILEPSY” (ORCOSA INC., priority 2020, published 2024)",
  "origin": "cited, not measured here",
  "settings": "ingested orally, extensive first pass metabolism",
  "data": [
    {"smiles": "C=C(C)[C@@H]1CCC(C)=C[C@H]1c1c(O)cc(CCCCC)cc1O", "note": "[CBD, cannabidiol]", "values": [
      {"measurement": "bioavailability", "result": "6 to 11", "unit": "%"}
    ]}
  ]
}
